US11221326B2 (TOPPAN PRINTING CO., LTD., priority 2016, dated 2022)

Test system: human lung cancer cell line NCI-H1975
Test: Drug sensitivity by viable count analysis (CNT %), NCI-H1975 cells cultured with exosomes (Example 3)
Format: cell-based
Details: Gefitinib 10 μM, 72 hours
Procedure: As a cell culture vessel, a Transwell cell culture insert (#3470 manufactured by Corning Incorporated) was used. The culture medium used was D-MEM (043-30085 manufactured by Wako Pure Chemical Corporation) containing 10 vol/vol % of bovine serum (EXO-FBS-50A-1 manufactured by System Biosciences, LLC), and 1 vol/vol % of penicillin-streptomycin (168-23191 manufactured by Wako Pure Chemical Corporation).
Drugs were each assessed three times using a final concentration of 10 μM of Gefitinib.
As exosomes derived from drug resistant cell line, ones recovered from the culture supernatant of human lung cancer cell line A549 (ATCC No.: CCL-185)) by ultracentrifugation were used. Assessments were conducted with respect to two conditions of 0 exosomes (no addition of the exosomes derived from the drug resistant cell line), and 1×10^9 exosomes.
In viable count analysis, drug sensitivity was assessed, as in Example 1, by using a trypan blue solution and by counting cells in the fluorescence mode of a cell counter (Countess II) manufactured by Life Technologies Inc. In the drug sensitivity assessment,CNT(cell viability)%=(viable count with addition of drug)/(viable count with addition of no drug)×100(%) was used as an assessment value.
As a reference, cells with an addition of 1×10^9 exosomes derived from the serum of a healthy person were also assessed.
(1) 2×10^4 NCI-H1975 cells were seeded in a Transwell cell culture insert.
(2) An appropriate amount of culture medium was added to the Transwell cell culture insert, followed by culturing in a CO2 incubator (37° C., 5% CO2) for 24 hours.
(1) An appropriate amount of culture medium was mixed with exosomes to prepare exosome medium solutions containing 0 exosomes (no addition of exosomes derived from a drug resistant cell line) and 1×10^9 exosomes.
(2) Each solution was added to the Transwell cell culture insert, followed by culturing in a CO2 incubator (37° C., 5% CO2) for 24 hours.
(1) An appropriate amount of the culture medium was mixed with a drug so as to have a final concentration of […]. […]

With `COc1cc2ncnc(Nc3ccc(F)c(Cl)c3)c2cc1OCCCN1CCOCC1` [Gefitinib] the “CNT (%) Average value” (0 exosomes) was 59.9%, the “CNT (%) Average value” (1 × 10^9 exosomes derived from A549) was 89.2% and the “CNT (%) Average value” (1 × 10^9 exosomes derived from serum of healthy person) was 57.7%.
